Source: ChEMBL document CHEMBL1201862, “PubChem BioAssay data set” (2004)
Active and inactive are the calls of the source.

Columns and labels:
H9c2 = assay: cells; format: functional, cell-based; conditions: Rattus norvegicus, H9c2, Myocardium;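 also: confirmatory concentration-response retest of ultra-high-throughput screening hits for modulation of myocardial damage; cell death induced by hydrogen peroxide oxidative stress; compound pretreatment for 60 min then peroxide exposure for 2 h; potency is for protecting the cells against peroxide damage rather than for killing them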
[1] = molecular target: T1, Probable nicotinate-nucleotide adenylyltransferase (Staphylococcus aureus (strain N315), UniProt P65502); format: functional, Staphylococcus aureus subsp. aureus N315;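 as to IC50 Mean: confirmatory dose-response retesting of NadD inhibitor hits first found in an ultra-high-throughput screen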
[2] = molecular target: T1, Probable nicotinate-nucleotide adenylyltransferase; format: functional, Staphylococcus aureus subsp. aureus N315; conditions: read-out: IC50_Mean
[3] = miR-122 activators in hepatoma reporter cells, dose response, cell-based, Huh7 psiCHECK-miR122, Renilla luciferase, cherry-picked (AID 651956); format: functional;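 also: huh7 hepatoma cells stably carrying a psiCHECK-2 miR-122 sensor plasmid; renilla luciferase signal reporting endogenous miR-122 activity after 48 h compound exposure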
[4] = molecular target: T2, Small ubiquitin-related modifier 1 (Homo sapiens, UniProt P63165); assay: inhibitors of SUMO1 peptide binding, dose response, biochemical, fluorescence polarization, uHTS hits (AID 624382); format: functional; conditions: read-out: IC50_Mean
[5] = molecular target: T2, Small ubiquitin-related modifier 1; assay: inhibitors of SUMO1 partner interactions, dose response, biochemical, FRET (AID 624383); format: functional; conditions: read-out: IC50_Mean
[6] = molecular target: T3, Tyrosine-protein kinase receptor TYRO3 (Homo sapiens, UniProt Q06418); format: functional;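 also: TYRO3 value obtained as one member of a kinome-wide profiling panel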
T3 sequence (Q06418 whole entry): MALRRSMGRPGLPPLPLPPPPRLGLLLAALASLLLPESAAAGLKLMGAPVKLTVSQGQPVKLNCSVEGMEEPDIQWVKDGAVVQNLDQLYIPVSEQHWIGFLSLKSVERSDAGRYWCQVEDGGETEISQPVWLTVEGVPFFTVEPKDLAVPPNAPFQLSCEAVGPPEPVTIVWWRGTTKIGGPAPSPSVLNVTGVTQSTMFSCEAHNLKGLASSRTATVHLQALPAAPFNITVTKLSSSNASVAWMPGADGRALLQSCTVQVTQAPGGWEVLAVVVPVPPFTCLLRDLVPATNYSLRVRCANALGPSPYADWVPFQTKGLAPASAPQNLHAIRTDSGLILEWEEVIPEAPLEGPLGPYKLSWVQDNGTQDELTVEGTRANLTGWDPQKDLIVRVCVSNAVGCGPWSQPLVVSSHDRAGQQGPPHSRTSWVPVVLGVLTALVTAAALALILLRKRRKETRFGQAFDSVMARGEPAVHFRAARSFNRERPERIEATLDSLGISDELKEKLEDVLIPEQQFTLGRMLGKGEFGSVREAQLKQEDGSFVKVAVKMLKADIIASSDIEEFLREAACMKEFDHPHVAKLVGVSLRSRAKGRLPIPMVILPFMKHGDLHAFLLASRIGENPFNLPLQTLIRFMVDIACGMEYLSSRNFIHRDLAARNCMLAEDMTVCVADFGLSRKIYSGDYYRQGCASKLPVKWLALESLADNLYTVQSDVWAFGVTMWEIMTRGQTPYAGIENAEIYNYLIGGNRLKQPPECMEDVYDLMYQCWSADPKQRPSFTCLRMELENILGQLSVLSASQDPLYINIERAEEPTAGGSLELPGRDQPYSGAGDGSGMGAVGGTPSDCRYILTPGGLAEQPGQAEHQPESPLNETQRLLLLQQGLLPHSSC

[7] = molecular target: Dual specificity tyrosine-phosphorylation-regulated kinase 1B (Homo sapiens, UniProt Q9Y463); assay: Navigating the Kinome. Panel member name: DYRK1B; format: functional
BJ [8] = assay: cells; format: functional, cell-based; conditions: Homo sapiens
BJ [9] = assay: cytotoxicity toward BJ-TERT-LT-ST fibroblasts, dose response, cell-based, RAS-independent, luminescence (AID 1935); format: functional; conditions: Homo sapiens;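 also: BJ fibroblasts immortalized with TERT plus LT and ST oncogenes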
[10] = cytotoxicity toward DRD oncogenic fibroblasts, dose response, cell-based, non-viral oncogenic, luminescence (AID 1934); format: functional; conditions: Homo sapiens
BJ [11] = assay: cytotoxicity toward Ras-transformed BJeLR fibroblasts, dose response, cell-based, alamar blue fluorescence, cherrypicked samples (AID 2631); format: functional; conditions: Homo sapiens;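 also: confirmatory dose-response assay in RAS-dependent BJ fibroblasts engineered with TERT, LT and ST, with cytotoxicity read by fluorescence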
[12] = molecular target: T4, Rac GTPase-activating protein 1 (Homo sapiens, UniProt Q9H0H5); assay: MgcRacGAP GTPase-activating activity inhibitors, confirmation, biochemical, ADP Hunter fluorescence, primary and confirmatory (AID 624330); format: functional
T4 sequence (Q9H0H5 whole entry): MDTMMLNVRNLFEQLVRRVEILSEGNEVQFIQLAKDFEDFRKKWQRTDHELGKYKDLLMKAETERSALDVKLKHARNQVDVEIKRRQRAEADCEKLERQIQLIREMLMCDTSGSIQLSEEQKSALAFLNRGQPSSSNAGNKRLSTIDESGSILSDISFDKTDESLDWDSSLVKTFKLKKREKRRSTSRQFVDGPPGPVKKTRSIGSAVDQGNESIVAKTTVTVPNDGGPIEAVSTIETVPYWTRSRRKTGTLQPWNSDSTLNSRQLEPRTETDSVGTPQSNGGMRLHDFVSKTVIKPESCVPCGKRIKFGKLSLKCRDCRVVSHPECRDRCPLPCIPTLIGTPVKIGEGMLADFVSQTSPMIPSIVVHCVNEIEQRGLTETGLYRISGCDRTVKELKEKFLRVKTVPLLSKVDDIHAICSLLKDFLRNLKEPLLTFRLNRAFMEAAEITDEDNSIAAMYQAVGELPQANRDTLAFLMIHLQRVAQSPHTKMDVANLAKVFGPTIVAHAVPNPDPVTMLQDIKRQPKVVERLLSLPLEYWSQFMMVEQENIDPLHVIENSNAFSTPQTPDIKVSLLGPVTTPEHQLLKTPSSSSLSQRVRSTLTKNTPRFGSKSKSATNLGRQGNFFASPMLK

T2 sequence (P63165 whole entry): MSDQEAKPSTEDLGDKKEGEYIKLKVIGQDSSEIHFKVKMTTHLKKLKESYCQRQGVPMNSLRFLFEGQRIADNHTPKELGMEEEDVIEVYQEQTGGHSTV
T1 sequence (P65502 whole entry): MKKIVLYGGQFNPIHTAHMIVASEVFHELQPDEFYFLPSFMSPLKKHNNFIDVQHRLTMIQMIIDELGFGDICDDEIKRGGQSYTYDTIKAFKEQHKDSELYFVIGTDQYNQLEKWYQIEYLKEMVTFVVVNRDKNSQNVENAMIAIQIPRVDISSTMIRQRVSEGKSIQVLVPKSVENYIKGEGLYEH
Chain of Dual specificity tyrosine-phosphorylation-regulated kinase 1B (Q9Y463 whole entry): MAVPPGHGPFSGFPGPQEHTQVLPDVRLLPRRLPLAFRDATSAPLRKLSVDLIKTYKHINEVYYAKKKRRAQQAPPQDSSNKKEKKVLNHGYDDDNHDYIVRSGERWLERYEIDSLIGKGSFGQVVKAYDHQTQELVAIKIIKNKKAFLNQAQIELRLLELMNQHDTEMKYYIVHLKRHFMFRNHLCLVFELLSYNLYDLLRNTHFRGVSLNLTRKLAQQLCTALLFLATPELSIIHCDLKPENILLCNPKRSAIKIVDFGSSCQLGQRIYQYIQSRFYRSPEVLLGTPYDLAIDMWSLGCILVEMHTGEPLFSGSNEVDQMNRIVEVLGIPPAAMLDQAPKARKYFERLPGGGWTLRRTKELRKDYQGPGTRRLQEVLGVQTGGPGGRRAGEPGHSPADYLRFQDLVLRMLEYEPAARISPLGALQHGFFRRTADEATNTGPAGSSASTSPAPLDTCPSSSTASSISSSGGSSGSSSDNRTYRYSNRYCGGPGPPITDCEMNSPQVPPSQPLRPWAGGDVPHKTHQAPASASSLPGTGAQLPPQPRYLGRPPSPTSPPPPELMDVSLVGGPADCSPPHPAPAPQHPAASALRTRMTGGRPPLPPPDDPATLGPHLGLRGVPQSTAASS

COc1cccc(Nc2nc(-c3sc(NC(=O)c4ccco4)nc3C)cs2)c1
IC50 (H9c2): > 79 µM (inactive)
IC50 [1]: 13.5 µM (active)
IC50 [2]: 33.2 µM (active)

CNC(=O)C[C@H]1CC[C@@H]2[C@H](COc3ccc(NS(=O)(=O)c4ccc(F)cc4)cc3C(=O)N2C)O1
AC50 [3]: 47.9 µM (active)

O=C(N/N=C/c1cccnc1)c1cccc(NC(=O)c2ccc(Cl)cc2)c1
IC50 [4]: > 66.6 µM (inactive)
IC50 [5]: 5.33 µM (active)

O=c1[nH]c2cnc(Cl)nc2[nH]1
Ki [6]: 79.4 µM (active)
Ki [7]: 79.4 µM (active)

Cn1cccc1/C=C1\SC(Nc2ccc(O)cc2)=NC1=O
EC50 (BJ [8]): 0.926 µM (inconclusive)
EC50 (BJ [9]): 0.357 µM (inconclusive)
EC50 [10]: 0.362 µM (active)
EC50 (BJ [11]): < 0.104 µM (active)
IC50 [12]: 94.8 µM (active)
